According to article PMC2809098, “HH Domain of Alzheimer’s Disease Aβ Provides Structural Basis for Neuronal Binding in PC12 and Mouse Cortical/Hippocampal Neurons” (PLoS ONE, 2010):
No end group written: not given here.

What was measured:
[1] = tested on: amyloid plaques in APP, PS1 mouse brain sections; assay: Labeling of amyloid plaques in brain sections with radioiodinated peptides, emulsion autoradiography; type: binding; conditions: 100 pM radioiodinated peptide, 3 hrs, unfixed 15 µm cryosections, 20-month old APP, one day of exposure
Protocol: HPLC-purified ^125I-Aβ40, ^125I-Aβ40 H13G, ^125I-Aβ40 H13R, ^125I-Aβ40 H13,14G or buffer was incubated in vitro with unfixed cryosections (15 µm) of brain from a 20-month old APP, PS1 AD transgenic mouse using the same procedure used previously. The rodent Aβ was not evaluated because the peptide lacks a tyrosine amino acid for radioiodination. Briefly, the sections were incubated for 3 hrs with 100 pM radioiodinated peptide or alone in 250 µl of TBS (50 mM Tris HCl, 138 mM sodium chloride, pH 7.0) containing 0.1% BSA, 0.6 mg/ml magnesium chloride, 0.04 mg/ml bacitracin, 0.002 mg/ml chymostatin, and 0.004 mg/ml leupeptin. After rinsing and air drying overnight at 4°C., the sections were fixed in formalin for 5 min and then underwent immunoperoxidase histochemistry (IH) for amyloid using an anti-Aβ monoclonal mouse antibody (4G8, 1∶1000, Signet Laboratories, Dedham, MA). Next, the sections were dipped in an autoradiographic emulsion (Type NTB-3, Kodak, Rochester, NY) for direct comparison of ^125I-peptide labeling to anti-Aβ IH. The slides were dipped in emulsion, exposed for various durations, and developed according to the instructions. The sections were dehydrated with successive changes of ethanol and xylene and then coverslipped.

immobilized Aβ40 fibrils = target: T1, immobilized Aβ40 fibrils (Homo sapiens, UniProt P05067); assay: Surface plasmon resonance binding to immobilized Aβ40 fibrils; conditions: read-out: ka
T1 construct: made in house; host or cells: chemical solid-phase peptide synthesis (CEM Liberty synthesizer)
T1 sequence (P05067 672-711): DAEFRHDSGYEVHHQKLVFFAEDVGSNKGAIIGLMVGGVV
Protocol: Surface Plasmon Resonance (SPR) analyses were performed at 25 °C using Biacore 3000 optical biosensors with research grade CM5 chips (Biacore, Uppsala, Sweden). […] The binding sensograms were recorded following the injection of freshly prepared peptides over the immobilized surface for 5 min at a flow rate of 30 µl/min. The dissociation profile was monitored for about 15 min, and then the surface was regenerated with two short 8 sec injections of 50 mM NaOH. Extensive validation studies were performed to ensure that Aβ fibrils immobilized on the chip retained their binding characteristics even after the regeneration procedure. Kinetic data analysis was performed using Biaevaluation software (Version 3.2) provided by Biacore Inc., Uppsala, Sweden.

With “^125I-Aβ40 H13,14G: radioiodinated Aβ40 H13,14G” the “labeling of amyloid plaques” value [1] was “labeled amyloid plaques equally well”.
In the case of “^125I-Aβ40: radioiodinated Aβ40 [reference compound]”, the “labeling of amyloid plaques” value [1] is reported as “labeled amyloid plaques equally well”.
For ^125I-Aβ40 H13G, the “labeling of amyloid plaques” value [1] was “labeled amyloid plaques equally well”.
With ^125I-Aβ40 H13R the “labeling of amyloid plaques” value [1] was “labeled amyloid plaques equally well”.
In the case of “DAEFGHDSGFEVRHQKLVFFAEDVGSNKGAIIGLMVGGVV [Aβ40 R5G, Y10F, H13R, Aβ1-40 R5G, Y10F, H13R]”, the kon at 75 µM (immobilized Aβ40 fibrils) is reported as 31 M⁻¹ s⁻¹.
